Measured values from US8110217B2, “Sphingomyelin liposomes for the treatment of hyperactive bladder disorders” (priority 2001, dated 2012).

Test system: chemically induced bladder hyperactivity
Experiment: Cystometrogram (CMG): liposomes of various lipids infused in the presence of KCl after protamine sulfate (Examples 1-4)
Type: in vivo, female Sprague-Dawley rats
Source text: Bladder reflex activity in thirty-four (34) female Sprague-Dawley rats (200-250 g) was studied by cystometry performed under anesthesia with urethane (1.2 g/kg) administered by subcutaneous injection. Body temperature was maintained in the physiologic range using a heating lamp. A transurethral bladder catheter (PE-50) connected by a three-way stopcock to a pressure transducer and to a syringe pump was used to record intravesical pressure and to infuse solutions into the bladder. A control cystometrogram (CMG) was performed by slowly filling the bladder with saline at a rate of 0.04 ml/min to elicit repetitive voiding. The bladder contraction frequency of the reflex bladder contractions were recorded. After performing control CMGs with saline infusion for 3 hours, protamine sulfate (PS) (Sigma Chemical; 10 mg/ml) was infused at a rate of 0.04 ml/min for 1 hour to increase epithelial permeability followed by infusion of the irritant KCl (500 mM) for 1 hour. Subsequently, liposomes made from lipids of various compositions then were infused in the presence of a high concentration of KCl for 2 hours.
The effect of charge on the lipid headgroup in reducing bladder activity in three animal groups (n=5) was determined. Neutrally charged liposomes prepared with L-α-PC (a zwitterionic lipid egg PC) were compared against liposomes having either a positively or negatively charged polar headgroup, namely, 1,2-dioleoyl-3-trimethylammonium-propane (DOTAP) and 1-α-phosphatidylserine (POPS), respectively.
Liposomes were prepared as described by Kirby and Gregoriadis (Kirby, C. J. and Gregoriadia, G., “A simple procedure for preparing liposomes capable of high encapsulation efficiency under mild conditions,” Liposome Technology, G. Gregnoriadis, Ed., C.R.C. Press, Inc., Boca Raton, Fla., 1984, Vol. 1, p. 20, 1984). Briefly, liposomes were constructed as a 2:1 molar ratio of L-α-phosphatidylcholine and cholesterol (Sigma Chemical Co., St. Louis, Mo.) to a final lipid concentration of 1-2 mg/ml in saline. Lipids in chloroform were dried down together in the proper ratio under nitrogen. The residues were reconstituted as liposomes in saline or 500 mM KCl by intense sonication. This lipid composition produced liposomes with no net charge.
Statistical analyses were performed using Student's t test for paired or unpaired data, where applicable. A P-value less than 0.05 was considered significant. All data were expressed as means±S.E. (standard error).
Neutrally charged liposomes prepared with sphingomyelin were compared against liposomes prepared from dihydrosphingomyelin and two pure synthetic lipids: 1,2-distearoyl-sn-glycero-3-phosphocholine (DSPC) and 1,-oleoyl-2-stearoyl-sn-glycero-3-phosphocholine (OSPC).
The methodology of this investigation is the same as described above in Example 1 with the exception that the preparation of liposomes was modified from Example 1. Briefly, liposomes were constructed as a 2:1 molar ratio of sphingomyelin and cholesterol (Sigma Chemical Co., St. Louis, Mo.) to a final lipid concentration of 1-2 mg/ml in saline. Lipids in chloroform were dried down together in the proper ratio under nitrogen. The residues were reconstituted as liposomes in saline or 500 mM KCl by intense sonication. This lipid composition produced sphingomyelin liposomes with no net charge.
Sphingomyelin devoid of its phosphorylcholine head group generates the molecule ceramide, a well known lipid second messenger which mediates a wide range of cellular responses to external stimuli, and also is used for the biosynthesis of sphingomyelin and glycosphingolipids. Because ceramide cannot form stable liposomes by itself, its effect on bladder hyperactivity was tested by including it at 1 mol % in an inert lipid, namely, 1,2-distearoyl-sn-glycero-3-phosphocholine (DSPC).
The methodology of this investigation is the same as described above in Example 1 with the exception that the preparation of liposomes was modified from Example 1. […]

[1] = included at 1 mol % in DSPC liposomes

Molecule | effect on efficacy of DSPC liposomes in reducing bladder contraction frequency [1] | also measured
1-alkyl-2-acetoyl-sn-glycero-3-phosphocholine [PAF] |  | bladder reflex activity (instilled alone or included with DSPC liposomes at 1-5 mol %): aggravated the bladder reflex activity
CCCCCCCCCCCCC/C=C/[C@@H](O)[C@@H](N)COP(=O)(O)O [sphingosine 1-phosphate] | did not show a similar beneficial effect | effect on efficacy of DSPC liposomes in reducing bladder contraction frequency (included in DSPC at 1-5 mol % (data not shown)): equally effective as ceramide and sphingosine
CCCCCCCCCCCCC/C=C/[C@@H](O)[C@@H](N)CO [sphingosine] | had a similar effect | 
ceramide | significantly increased the efficacy of DSPC | 
cerebroside |  | effect on efficacy of DSPC liposomes in reducing bladder contraction frequency (DSPC/cerebroside and cholesterol liposomes): significantly increased the efficacy of DSPC
